Reference: PMC11022729 (Advanced Science, 2024)
Counter-ions that a name gives are not always drawn.

Columns and labels:
[1] = target: T1, human D3 receptor (Homo sapiens, UniProt P35462); experiment: [3H]-spiperone competition binding assay, D3; settings: mean [CI 95%]
T1 construct: expressed in transfected cells; host or cells: CHO
Procedure: (§1) CHO cells stably expressing human dopamine D2short (D2R) and D3 receptor (D3R) were washed and harvested using PBS. […] The cell membrane homogenate was centrifuged (20 000 × g, 20 min, 4 °C), and the resulting cell pellet was resuspended in the binding buffer. Crude membrane extracts were kept at −80 °C until use. Before starting the experiments, cell membranes were thawed, homogenized by sonication (3 × 10 s), and stored in an ice‐cold binding buffer. […] Assays were performed at least in triplicate with appropriate concentrations ranging from 0.01 nM to 100 µM of the test compound. Non‐specific binding was determined using 10 µM haloperidol. By filtering through GF/B filters pretreated with 0.3% (m/v) polyethyleneimine, the bound radioligand was separated from free radioligand using a cell harvester. Radioactivity was measured using liquid scintillation counting. Data were evaluated using the GraphPad Prism 9 software (San Diego, CA, USA) with a nonlinear regression fit.

[2] = test system: HEK293 cells; experiment: Live-cell high-content cytotoxicity multiplex assay; format: cell-based; settings: 100 µM, 6 h
Procedure: To explore whether the compounds affected general cell functions, we performed a live‐cell high‐content assay that allowed for the simultaneous investigation of cellular viability, compound precipitation, and maintenance of membrane integrity and mitochondrial mass.^[ [25] ^]
To assess cell viability, a live cell high‐content screen was performed in HEK293T cells as described previously.^[ [25] ^] In brief, HEK293T cells (ATCC CRL‐1573) were cultured in DMEM plus L‐glutamine (high glucose) supplemented by 10% FBS (Gibco) and penicillin/streptomycin (Gibco). Cells were seeded at a density of 1500 cells/well in 384 well plates in culture medium (cell culture microplate, PS, f‐bottom, µClear, 781 091; Greiner). Cells were stained simultaneously with 60 nM Hoechst33342 (Thermo Scientific), 75 nM Mitotracker red (Invitrogen), 0.3 µL per well annexin V Alexa Fluor 680 conjugate (Invitrogen), and 25 nL per well BioTracker 488 green microtubule cytoskeleton dye (EMD Millipore). The fluorescence and cellular shape were measured after 6 h of compound exposure using a CQ1 high‐content confocal microscope (Yokogawa). […] Images were analyzed using the CellPathfinder software (Yokogawa). Cells were detected and gated in different cell populations as described previously^[ [47] ^] using a machine learning‐based algorithm. Briefly, compound precipitation was detected as Hoechst high‐intensity objects. […]

[3] = target: T2, human Slack (Homo sapiens, UniProt Q5JUK3); experiment: FluxOR potassium ion channel assay in HEK-Slack cells; format: cell-based; settings: for EC50: HEK-Slack cells, Na+-free assay buffer, mean (95% confidence interval)
T2 construct: host or cells: HEK293
T2 sequence (Q5JUK3 1-1230): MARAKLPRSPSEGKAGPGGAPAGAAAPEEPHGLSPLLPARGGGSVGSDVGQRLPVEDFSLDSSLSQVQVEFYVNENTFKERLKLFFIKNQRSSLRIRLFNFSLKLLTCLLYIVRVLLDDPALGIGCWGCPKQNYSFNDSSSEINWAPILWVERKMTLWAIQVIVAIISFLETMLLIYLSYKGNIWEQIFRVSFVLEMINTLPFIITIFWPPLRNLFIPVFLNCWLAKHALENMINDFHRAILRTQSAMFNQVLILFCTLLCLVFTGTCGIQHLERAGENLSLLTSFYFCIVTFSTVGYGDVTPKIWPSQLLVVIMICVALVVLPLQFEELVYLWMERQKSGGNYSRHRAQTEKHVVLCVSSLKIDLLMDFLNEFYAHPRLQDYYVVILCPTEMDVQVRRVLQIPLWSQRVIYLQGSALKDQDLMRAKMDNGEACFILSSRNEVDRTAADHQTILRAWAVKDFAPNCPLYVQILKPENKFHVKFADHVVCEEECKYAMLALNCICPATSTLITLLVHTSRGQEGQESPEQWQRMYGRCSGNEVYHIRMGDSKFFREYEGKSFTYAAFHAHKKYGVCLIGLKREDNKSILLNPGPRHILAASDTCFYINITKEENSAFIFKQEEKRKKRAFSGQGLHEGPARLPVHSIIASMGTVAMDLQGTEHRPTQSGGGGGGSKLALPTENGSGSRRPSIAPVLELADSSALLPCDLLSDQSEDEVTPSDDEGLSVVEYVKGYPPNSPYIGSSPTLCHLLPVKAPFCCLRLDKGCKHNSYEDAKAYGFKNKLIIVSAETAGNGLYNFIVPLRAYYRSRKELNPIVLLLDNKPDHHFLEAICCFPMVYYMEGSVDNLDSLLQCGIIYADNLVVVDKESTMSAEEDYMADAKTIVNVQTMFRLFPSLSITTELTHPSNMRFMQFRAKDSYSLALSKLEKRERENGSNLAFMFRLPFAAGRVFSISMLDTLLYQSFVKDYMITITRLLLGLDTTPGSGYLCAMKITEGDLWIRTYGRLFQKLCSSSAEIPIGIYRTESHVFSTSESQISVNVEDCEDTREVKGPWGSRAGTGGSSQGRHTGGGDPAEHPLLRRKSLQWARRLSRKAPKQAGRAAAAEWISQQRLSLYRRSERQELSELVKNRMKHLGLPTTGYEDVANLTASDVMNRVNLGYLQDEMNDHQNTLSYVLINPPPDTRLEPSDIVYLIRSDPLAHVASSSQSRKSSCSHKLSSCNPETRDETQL
Procedure: The functional activity of this series of compounds against human Slack was determined using a cell‐based FluxOR potassium ion channel assay in cultured HEK293 cells stably expressing human Slack (herein referred to as HEK‐Slack cells) and a Na^+‐free assay buffer to prevent compound‐independent Slack activation by monovalent cations.^[ [14], [24] ^] […] Of the 114 newly synthesized compounds, 31 acted as Slack activators to varying extents. Accordingly, we deemed eight of these as the most interesting candidates.
To determine the Slack‐activating efficacy and potency of the novel compounds, a commercial FluxOR potassium ion channel assay (#10 017; Invitrogen) was used. HEK‐Slack cells were plated at a density of 50 000 cells per well on a poly‐D‐lysine coated (75 µg mL^−1, Sigma–Aldrich) 96‐well, black‐walled microplate with clear bottom (#655 090; Greiner Bio‐One) in DMEM (100 µL per well) containing 10% FBS and 1% penicillin/streptomycin 24 h prior to assaying. In the initial experiments shown in Figure S3A–F (Supporting Information), HEK‐Slack cells were plated at a density of 100 000 cells/well 48 h prior to the assay. On the day of the experiment, the cells were loaded with FluxOR dye according to the manufacturer's protocol. A Na^+‐free assay buffer, adjusted to pH 7.4 with KOH, containing 140 mM choline chloride, 5 mM KCl, 2 mM CaCl2, 2 mM MgSO4, 10 mM HEPES, and 5.55 mM glucose was used. To reduce background fluorescence, all assay components were complemented with a 10% BackDrop Background Suppressor (#B10511; Invitrogen).
All compounds were prepared as a 333 mM stock in DMSO and diluted on the experimental day to a final concentration of 100, 50, 25, 12.5, 6.25, 3.125, or 1.5625 µM in an assay buffer with DMSO adjusted to 0.03%. Before treatment, the cells were washed, and the medium was exchanged for the assay buffer. In a total volume of 90 µL per well, the cells were then incubated for 30 min at 37 °C with compounds at the indicated concentrations, or 0.03% DMSO alone as the vehicle. […] Fluorescence was measured using an Infinite M200 microplate reader (Tecan) with excitation at 485 nm (9 nm bandwidth) and emission at 525 nm (20 nm bandwidth) in the bottom read mode. First, the baseline fluorescence of the individual wells was established. Thereafter cells were stimulated with 20 µL Tl2SO4 (5 mM) solution injected at 100 µL s^−1, and fluorescence was further recorded for 100 s. Assays were run in triplicate. For all time points, the ratio of fluorescence to baseline fluorescence was calculated first for individual wells, and the average was then used.
Dose‐response curves comprising six concentrations were obtained in triplets using fluorescence/fluorescenceBaseline ratios at the 100th s.

[4] = target: T3, human D2S receptor (Homo sapiens, UniProt P14416); experiment: [3H]-spiperone competition binding assay, D2; settings: mean [CI 95%]
T3 construct: expressed in transfected cells; host or cells: CHO
Procedure: as §1

[5] = Metabolic stability assay in rat liver microsomes; format: in vitro ADME; settings: 10 µM, 15, 30 and 60 min
Procedure: We next assessed the metabolic stability of these compounds (10 µM) in rat liver microsomes (Figure 2A). […] Therefore, we assumed that the occupation of metabolically labile sites at the aromatic core and the reduction in electron density at the oxidizable nitrogen atom of the piperazine ring might increase metabolic stability. Indeed, both the introduction of fluorine at R^2 and the introduction of an electron‐withdrawing carboxylic acid linker at R^3 improved metabolic stability. The substitution of chlorine with a trifluoromethyl group at R^1 was also beneficial. In contrast, homopiperazine and hydroxy linkers were metabolically labile.
The solubilized test compound (5 µL, final concentration 10 µM) was preincubated at 37 °C in 432 µL phosphate buffer (0.1 M, pH 7.4) together with 50 µL NADPH regenerating system (30 mM glucose‐6‐phosphate, 4 U mL^−1 glucose 6‐phosphate dehydrogenase, 10 mM NADP, and 30 mM MgCl2). After 5 min, the reaction started upon the addition of 13 µL of microsome mix from the liver of Sprague‐Dawley rats (Invitrogen; 20 mg protein per mL in 0.1 M phosphate buffer) in a shaking water bath at 37 °C. The reaction was stopped by adding 500 µL ice‐cold methanol at 0, 15, 30, and 60 min. The samples were centrifuged at 5000 × g for 5 min at 4 °C and the test compound was quantified from the supernatants by HPLC; the composition of the mobile phase was adapted to the test compound in a range of MeOH 40−90% and water (0.1% formic acid) 10−60%. Flow rate: 1 mL min^−1; stationary phase: Purospher STAR, RP18, 5 µm, 125 × 4; precolumn: Purospher STAR, RP18, 5 µm, 4 × 4; detection wavelength: 254 and 280 nm; injection volume: 50 µL. Control samples were used to evaluate the stability of the test compounds in the reaction mixture. The first control was without NADPH, which is needed for the enzymatic activity of the microsomes, the second control was with inactivated microsomes (incubated for 20 min at 90 °C), and the third control was without the test compound (to determine the baseline). The amounts of test compounds were quantified using an external calibration curve.

[6] = test system: mice; experiment: Pulse oximetry in conscious, freely moving mice; settings: 10 mg kg−1 i.p., observation period of 30 min
Procedure: To measure cardiovascular function, a pulse oximeter (MouseOX Plus, Starr Life Sciences Corp.) was used in conscious, freely moving mice. After three consecutive days of habituating the mice to the collar clip for at least 30 min, baseline measurements were performed. […] All the datasets were sampled at 1 Hz, error‐corrected according to the manufacturer's instructions, and averaged over 300 s for each time point.

T1 sequence (P35462 whole entry): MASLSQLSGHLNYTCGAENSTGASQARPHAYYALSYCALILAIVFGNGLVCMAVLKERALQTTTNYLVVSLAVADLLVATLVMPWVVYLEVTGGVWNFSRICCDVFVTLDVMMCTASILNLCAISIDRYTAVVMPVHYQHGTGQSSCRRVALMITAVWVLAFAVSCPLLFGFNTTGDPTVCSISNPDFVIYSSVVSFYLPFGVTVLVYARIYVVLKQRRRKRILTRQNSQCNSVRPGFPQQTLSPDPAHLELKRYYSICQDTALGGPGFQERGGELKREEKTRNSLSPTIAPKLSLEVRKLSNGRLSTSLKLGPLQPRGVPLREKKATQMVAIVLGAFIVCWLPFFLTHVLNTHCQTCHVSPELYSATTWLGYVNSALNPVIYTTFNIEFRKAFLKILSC
T3 sequence (P14416 1-414 isoform P14416-2): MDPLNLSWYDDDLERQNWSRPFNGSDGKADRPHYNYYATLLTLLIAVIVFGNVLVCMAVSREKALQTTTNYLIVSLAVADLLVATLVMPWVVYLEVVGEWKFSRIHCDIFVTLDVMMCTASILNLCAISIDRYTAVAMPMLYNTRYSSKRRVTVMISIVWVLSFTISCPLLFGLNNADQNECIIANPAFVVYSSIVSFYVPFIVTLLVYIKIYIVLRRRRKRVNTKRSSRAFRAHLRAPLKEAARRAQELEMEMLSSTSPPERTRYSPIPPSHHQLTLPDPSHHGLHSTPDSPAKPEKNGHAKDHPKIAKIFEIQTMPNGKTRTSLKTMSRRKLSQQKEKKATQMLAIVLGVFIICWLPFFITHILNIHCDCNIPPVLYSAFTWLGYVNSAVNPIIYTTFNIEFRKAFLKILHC

Compound | Ki [1] | compound precipitation [2] | Emax [3] | EC50 [3] | Ki [4] | metabolic stability [5] | breath rate [6] | heart rate [6]
CN1CCN(C2=Nc3ccccc3Oc3ccc(C(F)(F)F)cc32)CC1 [Compound 1] | 12.2 nM | compound precipitation was only detected | 114% | 6300 nM | 3.6 nM |  |  | 
CN1CCCN(C2=Nc3ccccc3Oc3ccc(C(F)(F)F)cc32)CC1 [Compound 2] | 62.4 nM |  | 63.1% | 3200 nM | 82.8 nM |  |  | 
CN1CCN(C2=Nc3cc(F)ccc3Oc3ccc(C(F)(F)F)cc32)CC1 [Compound 3] | 22.6 nM |  | 199% | 41500 nM | 2.89 nM |  |  | 
OCCN1CCN(C2=Nc3ccccc3Oc3ccc(Cl)cc32)CC1 [Compound 4] | 176 nM |  | 223% | 26000 nM | 50 nM |  |  | 
OCCOCCN1CCN(C2=Nc3ccccc3Sc3ccc(Cl)cc32)CC1 [Compound 5] | 63.4 nM |  | 87.4% | 30000 nM | 44.9 nM |  |  | 
O=C(O)COCCN1CCN(C2=Nc3ccccc3Oc3ccc(C(F)(F)F)cc32)CC1 [Compound 7] | 40.7 nM |  | 177% | 62500 nM | 27.4 nM | highest metabolic stabilities |  | 
O=C(O)COCCN1CCCN(C2=Nc3ccccc3Oc3ccc(C(F)(F)F)cc32)CC1 [Compound 8] | 421 nM |  | 186% | 50900 nM | 134 nM |  |  | 
CN1CC[C@]23c4c5ccc(O)c4O[C@H]2[C@@H](O)C=C[C@H]3[C@H]1C5 [morphine, morphine sulfate pentahydrate, reference compound] |  |  |  |  |  |  | reduced | reduced
